Like-named read-outs stand apart in the source and are kept apart here.
How the values were obtained:
[1] = test system: Rat Liver; conditions: ref ToxRefDB, cited from earlier work
[2] = molecular target: T1, RXRa (RXRA) (Homo sapiens, UniProt P19793); experiment: NCGC_RXRa_Agonist: GAL4 BLAM Reporter gene assay: RXRa; format: cell-based; conditions: agonist mode
T1 sequence (P19793 227-462 limits assumed): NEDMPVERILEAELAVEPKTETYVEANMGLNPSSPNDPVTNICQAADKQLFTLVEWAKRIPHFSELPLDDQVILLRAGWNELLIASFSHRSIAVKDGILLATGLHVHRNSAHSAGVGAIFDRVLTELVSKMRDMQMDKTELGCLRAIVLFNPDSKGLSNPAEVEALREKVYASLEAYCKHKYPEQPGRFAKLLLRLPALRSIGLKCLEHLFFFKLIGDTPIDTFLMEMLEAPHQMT
Method: (§1) These assays measure binding constants and enzyme inhibition values for nuclear receptors. The targets include [drawing 67] , [drawing 68] , [drawing 69] , [drawing 70] , [drawing 71] , [drawing 72] , [drawing 73] , [drawing 74] , [drawing 75] and [drawing 76] . Each of the nuclear receptor targets was measured in agonist mode. Assays were run at the NIH Chemical Genomics Center (Rockville, MD).
(§2) Cell-based HTS Assays: These assays measuring binding constants and enzyme inhibition values for nuclear receptors. The targets include AR, ER, FXR, LXR, PPARα, PPARδ, PPARγ, RXRα, RXRβ and PXR. Each of the nuclear receptor targets was measured in both agonist and antagonist mode, but the antagonist data is still undergoing analysis due to possible interference between cytotoxicity and assay activity, so antagonist mode data were not used in the present analysis. Assays were run at the NIH Chemical Genomics Center (Rockville, MD) as part of the Tox21 collaboration. […] The R^2 was required to be ≥0.5. Values where only the highest concentration exceeded 50% activity were excluded to eliminate weak or false positives. Detailed description of the methods, data and analysis methods for this dataset will be presented in a separate publication.

[3] = test system: Rat Liver; conditions: ref ToxRefDB, cited from earlier work; remark: listed apart in the source
[4] = test system: Rat Liver; conditions: ref ToxRefDB, cited from earlier work; remark: listed apart in the source
[5] = molecular target: T2, PPARG (peroxisome proliferator-activated receptor gamma) (Homo sapiens, UniProt P37231); experiment: ATG_PPARg_TRANS: Factorial reporter gene assay (HepG2); format: cell-based; conditions: HepG2 reporter
T2 construct: expressed in transfected cells; host or cells: HepG2
T2 sequence (P37231 1-505): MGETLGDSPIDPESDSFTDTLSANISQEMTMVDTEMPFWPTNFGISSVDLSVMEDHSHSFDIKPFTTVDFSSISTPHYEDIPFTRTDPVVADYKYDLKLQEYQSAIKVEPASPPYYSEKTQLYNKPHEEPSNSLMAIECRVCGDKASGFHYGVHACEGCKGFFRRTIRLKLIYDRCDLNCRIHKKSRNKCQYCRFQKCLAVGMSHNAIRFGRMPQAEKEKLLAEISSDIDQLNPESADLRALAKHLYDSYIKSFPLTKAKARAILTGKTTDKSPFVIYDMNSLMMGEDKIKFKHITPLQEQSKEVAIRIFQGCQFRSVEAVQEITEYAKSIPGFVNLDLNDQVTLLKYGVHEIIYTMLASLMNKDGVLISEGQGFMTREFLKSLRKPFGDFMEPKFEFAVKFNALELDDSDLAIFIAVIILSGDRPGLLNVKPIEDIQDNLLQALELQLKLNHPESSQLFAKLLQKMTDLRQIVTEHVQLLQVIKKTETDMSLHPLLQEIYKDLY
Summary of the method: (§3)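 CIS (PXRE): HepG2 transfected with 48 TF-binding-site MRTU library. TRANS (ERRg, FXR, PPARg): one-hybrid format, extra 25 nuclear-receptor MRTUs. 7 concs, top = MTC, 3-fold serial dilution.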

[6] = molecular target: T3, CAR (NR1I3) (Homo sapiens, UniProt Q14994); experiment: ATG_PBREM_CIS: Factorial reporter gene assay (HepG2); format: cell-based; design: endogenous in cells; host or cells: HepG2; conditions: HepG2 reporter
T3 sequence (Q14994 1-352): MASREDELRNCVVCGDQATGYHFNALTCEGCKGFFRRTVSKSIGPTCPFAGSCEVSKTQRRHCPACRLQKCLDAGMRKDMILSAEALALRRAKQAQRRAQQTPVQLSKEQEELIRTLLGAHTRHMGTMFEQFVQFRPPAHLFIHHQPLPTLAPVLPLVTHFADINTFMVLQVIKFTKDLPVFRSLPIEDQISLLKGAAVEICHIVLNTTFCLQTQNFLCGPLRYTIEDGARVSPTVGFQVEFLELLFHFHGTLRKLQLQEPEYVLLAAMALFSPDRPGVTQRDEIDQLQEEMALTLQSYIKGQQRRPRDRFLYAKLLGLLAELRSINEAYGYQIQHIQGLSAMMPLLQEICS
Method: A multiple reporter transcription unit (MRTU) library consisting of 48 transcription factor binding sites was transfected into the HepG2 human liver hepatoma cell line. In addition to the cis-acting reporter genes (CIS), a modification of the approach was used to generate a trans-system (TRANS) with a mammalian one-hybrid assay consisting of an additional 25 MRTU library reporting the activity of nuclear receptor super-family members. […] These assays were performed by Attagene Inc. (Morrisville NC) under contract to EPA.
In addition to the cis-acting reporter genes (CIS), a modification of the approach was used to generate a trans-system (TRANS) with a mammalian one-hybrid assay consisting of an additional 25 MRTU library reporting the activity of nuclear receptor super-family members. […] Chemicals were then tested in the CIS and TRANS assays at seven concentrations starting at the MTC and followed by three-fold serial dilutions. These assays were performed by Attagene Inc. (Morrisville NC) under contract to EPA. Detailed description of the methods, data and analysis methods for this dataset will be presented in a separate publication.

[7] = test system: ABCB1; experiment: CLZD_ABCB1: Change in expression of ABCB1 (primary human hepatocytes); format: cell-based; conditions: 24 hr
Summary of the method: (§4)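 Primary human hepatocytes exposed to 5 concentrations (0.004-40 µM) for 6, 24 or 48 hr; transcript levels measured by multiplexed quantitative nuclease protection assay. Markers of nuclear receptor pathways: CYP1A1 (AhR), CYP2B6 and ABCB1 (CAR), CYP3A4 (PXR).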

[8] = test system: CYP1A1; experiment: CLZD_CYP1A1: Change in expression of CYP1A1 (primary human hepatocytes); format: cell-based; conditions: 24 hr
Summary of the method: as §4

[9] = molecular target: T4, PXR (NR1I2) (Homo sapiens, UniProt O75469); experiment: NVS_NR_hPXR: Human PXR Fluormone PXR (SXR) green (cell-free HTS); format: binding
T4 sequence (O75469 1-434): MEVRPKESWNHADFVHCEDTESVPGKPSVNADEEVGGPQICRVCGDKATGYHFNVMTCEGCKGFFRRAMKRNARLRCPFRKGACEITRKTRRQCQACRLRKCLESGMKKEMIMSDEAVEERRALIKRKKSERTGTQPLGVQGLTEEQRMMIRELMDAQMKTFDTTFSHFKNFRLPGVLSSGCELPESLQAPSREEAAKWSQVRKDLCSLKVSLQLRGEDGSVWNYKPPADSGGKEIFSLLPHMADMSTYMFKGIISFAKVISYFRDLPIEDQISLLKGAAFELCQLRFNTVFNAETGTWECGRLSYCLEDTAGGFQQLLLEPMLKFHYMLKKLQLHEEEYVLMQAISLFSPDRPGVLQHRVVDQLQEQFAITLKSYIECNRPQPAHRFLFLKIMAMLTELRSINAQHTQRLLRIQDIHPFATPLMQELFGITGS
Summary of the method: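 Responses were normalized to same-plate solvent controls as percent of neutral control. AC50 values came from Hill-equation fits of concentration-response curves.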

[10] = test system: CYP3A4; experiment: CLZD_CYP3A4: Change in expression of CYP3A4 (primary human hepatocytes); format: cell-based; conditions: 24 hr
Summary of the method: as §4

[11] = test system: CYP1A2; experiment: CLZD_CYP1A2: Change in expression of CYP1A2 (primary human hepatocytes); format: cell-based; conditions: 24 hr
Summary of the method: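 Chemicals are tested in human hepatocyte primary cultures over 0.004-40 µM (5 concentrations) for 6, 24 or 48 hr, and concentration- and time-dependent transcript changes are read by quantitative nuclease protection assay.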

[12] = test system: ABCB11; experiment: CLZD_ABCB11: Change in expression of ABCB11 (primary human hepatocytes); format: cell-based; conditions: 24 hr
Method: This is a collection of multiplexed gene expression assays focused on Phase I and II xenobiotic metabolizing enzymes and transporters. Human primary cell cultures were treated with chemicals at 5 concentrations (0.004-40 [drawing 42] M) for 6, 24 and 48 hr. Concentration- and time-response profiles of chemicals were measured by the expression of key nuclear receptor target genes, activities of CYP1A enzymes (EROD), and cell morphology. Fourteen gene targets were monitored by quantitative nuclease protection assay including: six representative cytochrome P-450 genes, four hepatic transporters, three Phase II conjugating enzymes, and one endogenous metabolism gene involved in cholesterol synthesis. The target genes associated with nuclear receptor pathways are as follows: [drawing 43] and [drawing 44] with [drawing 45]; [drawing 46] , [drawing 47] , [drawing 48] , [drawing 49] , [drawing 50] and [drawing 51] with [drawing 52]; [drawing 53] , [drawing 54] , [drawing 55] and [drawing 56] with [drawing 57]; [drawing 58] with [drawing 59]; and [drawing 60] with [drawing 61] . Assays were run in primary human hepatocyte cultures by CellzDirect Invitrogen Inc. (Durham, NC), in collaboration with EPA.
Multiplexed Gene Expression in Human Primary Hepatocytes: This is a collection of multiplexed gene expression assays focused on Phase I and II metabolic enzymes and transporters. […] Fourteen gene targets were monitored by quantitative nuclease protection assay: six representative cytochrome P450 genes, four hepatic transporters, three Phase II conjugating enzymes, and one endogenous metabolism gene involved in cholesterol synthesis. Cells were exposed at 5 concentrations (0.004-40 µM) for 6, 24 or 48 hr. Gene targets are sentinels for five nuclear receptor signaling pathways: AhR, CAR, PXR, FXR, and PPARα. All gene are associated with nuclear receptor pathways: CYP1A1 and CYP1A2 with AHR; ABCB1, ABCG2, CYP2B6, CYP2C9, CYP2C19 and UGT1A1 with CAR; CYP3A4, GSTA2, SLCO1B1 and SULT2A1 with PXR; HMGCS2 with PPARA; and ABCB11 with FXR. […] Detailed description of the methods, data and analysis methods for this dataset will be presented in a separate publication.

[13] = molecular target: T4, PXR (NR1I2); experiment: ATG_PXRE_CIS: Factorial reporter gene assay (HepG2); format: cell-based; design: endogenous in cells; host or cells: HepG2; conditions: HepG2 reporter
Summary of the method: as §3

[14] = test system: Mouse Liver; conditions: chronic study, mouse liver; ref ToxRefDB; cited from earlier work
[15] = molecular target: T5, PPARg (PPARG) (Homo sapiens, UniProt P37231); experiment: NCGC_PPARg_Agonist: GAL4 BLAM Reporter gene assay: PPARg; format: cell-based; design: expressed in transfected cells; host or cells: HEK293; conditions: agonist mode
T5 sequence (P37231 1-505): T2 sequence (P37231 1-505)
Method: as §1, §2

[16] = test system: Mouse Liver; conditions: chronic study, mouse liver; ref ToxRefDB; cited from earlier work; remark: listed apart in the source
[17] = test system: Mouse Liver; conditions: chronic study, mouse liver; ref ToxRefDB; cited from earlier work; remark: listed apart in the source

SMILES | CHR_Rat_Liver_1_AnyLesion ([1]; chronic rat study, liver) | NCGC_RXRa_Agonist [2] | CHR_Rat_Liver_3_NeoplasticLesion ([3]; chronic rat study, liver) | CHR_Rat_Liver_2_PreneoplasticLesion ([4]; chronic rat study, liver) | ATG_PPARg_TRANS [5] | ATG_PBREM_CIS [6] | CHR_Rat_Liver_1_AnyLesion ([1]; chronic study, rat liver) | CLZD_ABCB1_24 [7] | CLZD_CYP1A1_24 [8] | NVS_NR_hPXR [9] | CLZD_CYP3A4_24 [10] | CLZD_CYP1A2_24 [11] | CLZD_ABCB11_24 [12] | ATG_PXRE_CIS [13] | CHR_Rat_Liver_3_NeoplasticLesion ([3]; chronic study, rat liver) | CHR_Rat_Liver_2_PreneoplasticLesion ([4]; chronic study, rat liver) | CHR_Mouse_Liver_3_NeoplasticLesion [14] | NCGC_PPARg_Agonist [15] | CHR_Mouse_Liver_2_PreneoplasticLesion [16] | CHR_Mouse_Liver_1_AnyLesion [17]
CS(=O)(=O)c1ccc(C(=O)C2C(=O)CCCC2=O)c([N+](=O)[O-])c1 [row 195] | 6 | 4.471 | 0 | 0 | – | – | – | – | – | – | – | – | – | – | – | – | – | – | – | –
COC(=O)N(OC)c1ccccc1COc1ccn(-c2ccc(Cl)cc2)n1 [r270] | – | – | – | – | 6.119 | 5.658 | 6 | 5.275 | 6.198 | 5.183 | 5.335 | 6.309 | 5.366 | 5.62 | 0 | 0 | – | – | – | –
CCC(C)(C)C(=O)OC1=C(c2cc(Cl)cc(Cl)c2)C(=O)OC12CCCCC2 [r285] | – | – | – | – | 5.444 | – | 6 | – | – | 6.367 | 6.36 | – | – | – | 0 | 6 | 6 | 5.556 | 6 | 6

Source: article PMC3038857, “Using Nuclear Receptor Activity to Stratify Hepatocarcinogens” (PLoS ONE, 2011)
